Measured values taken from patent US20080146612A1, “Novel Biaromatic Compounds, Inhibitors of the P2X7-Receptor” (ASTRAZENECA AB, priority 2005, published 2008).

System: not given
Assay: not given
Details: not given

| melting point | Compound |
| --- | --- |
| 188 to 189 °C | Cc1ccc(-c2ccccc2C(=O)O)cc1C(=O)NCC1CCCCCC1 [Example 16, 3′-[[(Cycloheptylmethyl)amino]carbonyl]-4′-methyl-[1,1′-biphenyl]-2-carboxylic acid] |
| 166 to 168 °C | O=C(NCC1CCCCCC1)c1cc(-c2cccnc2C(=O)O)ccc1Cl [Example 10, 3-[4-Chloro-3-[[(cycloheptylmethyl)amino]carbonyl]phenyl]-2-pyridinecarboxylic acid] |
| 208 to 211 °C | O=C(NCCC1CCCCC1)c1cc(-c2ncc(Cl)cc2C(=O)O)ccc1Cl [Example 19, 5-Chloro-2-[4-chloro-3-[[(2-cyclohexylethyl)amino]carbonyl]phenyl]-3-pyridinecarboxylic acid] |
| 189 to 190 °C | O=C(NCC1CCCCCC1)c1cc(-c2ccc(Cl)c(C(=O)O)n2)ccc1Cl [Example 23, 3-Chloro-6-[4-chloro-3-[[(cycloheptylmethyl)amino]carbonyl]phenyl]-2-pyridinecarboxylic acid] |
| 104 to 107 °C | O=C(NCCC1CCCCC1)c1cc(-c2cccnc2C(=O)O)ccc1Cl [Example 11, 3-[4-Chloro-3-[[(2-cyclohexylethyl)amino]carbonyl]phenyl]-2-pyridinecarboxylic acid] |
| 189 to 190 °C | O=C(NCCC1CCCCC1)c1cc(-c2ccc(Cl)c(C(=O)O)n2)ccc1Cl [Example 22, 3-Chloro-6-[4-chloro-3-[[(2-cyclohexylethyl)amino]carbonyl]phenyl]-2-pyridinecarboxylic acid] |
| 180 to 183 °C | CC1(CNC(=O)c2cc(-c3ccccc3C(=O)O)ccc2Cl)CCCCCC1 [Example 13, 4′-Chloro-3′-[[[(1-methylcycloheptyl)methyl]amino]carbonyl]-[1,1′-biphenyl]-2-carboxylic acid] |
| 201 to 203 °C | O=C(NCC1CCCCCC1)c1cc(-c2ccccc2C(=O)O)ccc1Cl [Example 6, 4′-Chloro-3′-[[(cycloheptylmethyl)amino]carbonyl]-[1,1′-biphenyl]-2-carboxylic acid] |
| 177 to 178 °C | Cc1ccc(-c2ccc(Cl)c(C(=O)O)n2)cc1C(=O)NCC1CCCCCC1 [Example 18, 3-Chloro-6-[3-[[(cycloheptylmethyl)amino]carbonyl]-4-methylphenyl]-2-pyridinecarboxylic acid] |
| 176 to 179 °C | O=C(NCC1CCCCCC1)c1cc(-c2ncc(Cl)cc2C(=O)O)ccc1Cl [Example 20, 5-Chloro-2-[4-chloro-3-[[(cycloheptylmethyl)amino]carbonyl]phenyl]-3-pyridinecarboxylic acid] |
| 146 to 149 °C | O=C(NCC1(O)CCCCCC1)c1cc(-c2ccc(Cl)c(C(=O)O)n2)ccc1Cl [Example 24, 3-Chloro-6-[4-chloro-3-[[[(1-hydroxycycloheptyl)methyl]amino]carbonyl]phenyl]-2-pyridinecarboxylic acid] |
| 193 to 195 °C | O=C(NC[C@@H]1CCCCC[C@@H]1O)c1cc(-c2ccccc2C(=O)O)ccc1Cl (relative stereo) [Example 8, 4′-Chloro-3′-[[[[cis-2-hydroxycycloheptyl]methyl]amino]carbonyl]-[1,1′-biphenyl]-2-carboxylic acid] |
| 139 to 141 °C | C[C@@H](NC(=O)c1cc(-c2ccccc2C(=O)O)ccc1Cl)C1CCCCC1 [Example 12, 4′-Chloro-3′-[[[(1R)-1-cyclohexylethyl]amino]carbonyl]-[1,1′-biphenyl]-2-carboxylic acid] |

Continued, molecule first:

| Compound | melting point |
| --- | --- |
| O=C(NCC1(CO)CCCCCC1)c1cc(-c2ccccc2C(=O)O)ccc1Cl [Example 14, 4′-Chloro-3′-[[[[1-(hydroxymethyl)cycloheptyl]methyl]amino]carbonyl]-[1,1′-biphenyl]-2-carboxylic acid] | 175 to 177 °C |
| O=C(NCC1CCCCC1)c1cc(-c2ccccc2C(=O)O)ccc1Cl [Example 3, 4′-Chloro-3′-[[(cyclohexylmethyl)amino]carbonyl]-[1,1′-biphenyl]-2-carboxylic acid] | 212 to 214 °C |
| C[C@H](CNC(=O)c1cc(-c2ccccc2C(=O)O)ccc1Cl)c1ccccc1 [Example 4, 4′-Chloro-3′-[[[(2S)-2-phenylpropyl]amino]carbonyl]-[1,1′-biphenyl]-2-carboxylic acid] | 160 to 162 °C |
| O=C(NCCC1CCCCC1)c1cc(-c2cccnc2N2CCC(C(=O)O)CC2)ccc1Cl [Example 25, 1-[3-[4-Chloro-3-[[(2-cyclohexylethyl)amino]carbonyl]phenyl]-2-pyridinyl]-4-piperidinecarboxylic acid] | 116 to 120 °C |
| O=C(NCCC1CCCCC1)c1cc(-c2ccccc2C(=O)O)ccc1Cl [Example 9, 4′-Chloro-3′-[[(2-cyclohexylethyl)amino]carbonyl]-[1,1′-biphenyl]-2-carboxylic acid] | 191 to 193 °C |
| O=C(NCC1(O)CCCCCC1)c1cc(-c2ncc(Cl)cc2C(=O)O)ccc1Cl [Example 21, 5-Chloro-2-[4-chloro-3-[[[(1-hydroxycycloheptyl)methyl]amino]carbonyl]phenyl]-3-pyridinecarboxylic acid] | 201 to 204 °C |
| O=C(NCCc1ccccc1Cl)c1cc(-c2ccccc2C(=O)O)ccc1Cl [Example 1, 4′-Chloro-3′-[[[2-(2-chlorophenyl)ethyl]amino]carbonyl]-[1,1′-biphenyl]-2-carboxylic acid] | 136 to 140 °C (dec.) |
| O=C(NCC1(O)CCCCC1)c1cc(-c2ccccc2C(=O)O)ccc1Cl [Example 7, 4′-Chloro-3′-[[[(1-hydroxycyclohexyl)methyl]amino]carbonyl]-[1,1′-biphenyl]-2-carboxylic acid] | 202 to 204 °C |
| O=C(NCC1(O)CCCCCC1)c1cc(-c2cccnc2N2CCC(C(=O)O)CC2)ccc1Cl [Example 27, 1-[3-[4-Chloro-3-[[[(1-hydroxycycloheptyl)methyl]amino]carbonyl]phenyl]-2-pyridinyl]-4-piperidinecarboxylic acid] | 117 to 119 °C |
| CC1(C)[C@H]2CC[C@@H](CNC(=O)c3cc(-c4ccccc4C(=O)O)ccc3Cl)[C@@H]1C2 [Example 5, 4′-Chloro-3′-[[[[(1S,2R,5S)-6,6-dimethylbicyclo[3.1.1]hept-2-yl]methyl]amino]car-bonyl]-[1,1′-biphenyl]-2-carboxylic acid] | 170 to 172 °C |

Molecular target: T1, P2X7 receptor (Homo sapiens, UniProt Q99572)
T1 construct: 200 μl of a suspension of THP-1 cells; endogenous in cells; host or cells: THP-1 cells
T1 sequence (Q99572 1-595): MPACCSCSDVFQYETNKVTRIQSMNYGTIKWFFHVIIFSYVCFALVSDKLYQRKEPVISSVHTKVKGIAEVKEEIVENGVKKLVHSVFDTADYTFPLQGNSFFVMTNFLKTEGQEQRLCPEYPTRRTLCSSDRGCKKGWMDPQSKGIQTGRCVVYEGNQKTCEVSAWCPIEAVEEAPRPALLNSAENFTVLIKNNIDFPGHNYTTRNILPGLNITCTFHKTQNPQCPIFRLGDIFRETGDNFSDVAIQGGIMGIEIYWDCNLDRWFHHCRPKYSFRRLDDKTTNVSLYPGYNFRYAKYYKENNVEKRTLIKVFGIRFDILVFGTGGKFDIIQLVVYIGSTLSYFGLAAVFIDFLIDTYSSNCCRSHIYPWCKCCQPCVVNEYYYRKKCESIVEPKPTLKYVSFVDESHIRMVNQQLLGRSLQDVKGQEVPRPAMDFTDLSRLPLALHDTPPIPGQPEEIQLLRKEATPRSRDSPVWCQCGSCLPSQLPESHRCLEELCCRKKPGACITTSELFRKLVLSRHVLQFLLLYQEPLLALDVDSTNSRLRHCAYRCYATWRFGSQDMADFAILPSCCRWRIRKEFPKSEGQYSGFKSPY
Assay: P2X7 receptor antagonist test: bbATP-induced ethidium bromide fluorescence in THP-1 cells
Format: cell-based
Details: negative logarithm of the concentration of test compound necessary to reduce the bbATP agonist activity by 50%, 10^-5M bbATP solution, 37° C. for one hour
Excerpt: Certain compounds such as benzoylbenzoyl adenosine triphosphate (bbATP) are known to be agonists of the P2X7 receptor, effecting the formation of pores in the plasma membrane (Drug Development Research (1996), 37(3), p. 126). Consequently, when the receptor is activated using bbATP in the presence of ethidium bromide (a fluorescent DNA probe), an increase in the fluorescence of intracellular DNA-bound ethidium bromide is observed. The increase in fluorescence can be used as a measure of P2X7 receptor activation and therefore to quantif the effect of a compound on the P2X7 receptor.
In this manner, each of the title compounds of the Examples was tested for antagonist activity at the P2X7 receptor. Thus, the test was performed in 96-well flat bottomed microtitre plates, the wells being filled with 250 μl of test solution comprising 200 μl of a suspension of THP-1 cells (2.5×10^6 cells/ml) containing 10^−4M ethidium bromide, 25 μl of a high potassium buffer solution containing 10^−5M bbATP, and 25 μl of the high potassium buffer solution containing concentrations of test compound typically from 30 μM-0.001 μM. The plate was covered with a plastics sheet and incubated at 37° C. for one hour. The plate was then read in a Perkin-Elmer fluorescent plate reader, excitation 520 nm, emission 595 nm, slit widths: Ex 15 nm, Em 20 nm. […]

| Compound | IC50 [nM] |
| --- | --- |
| O=C(NCC1(O)CCCCCC1)c1cc(-c2ccccc2C(=O)O)ccc1Cl [Example 2, 4′-Chloro-3′-[[[(1-hydroxycycloheptyl)methyl]amino]carbonyl]-[1,1′-biphenyl]-2-carboxylic acid] | 63.1 |
| O=C(NCC1CCCCCC1)c1cc(-c2cccnc2N2CCC(C(=O)O)CC2)ccc1Cl [Example 26, 1-[3-[4-Chloro-3-[[(cycloheptylmethyl)amino]carbonyl]phenyl]-2-pyridinyl]-4-piperidinecarboxylic acid] | 100 |
